Assay results from ChEMBL document CHEMBL3885861, “Open TG-GATES”.

Species on record: Rattus norvegicus
Experiment: Open TG-GATES - Regimen: Daily Repeat
Assay type: toxicity, organism-based, Sprague-Dawley
Parameters: regimen Daily Repeat, gender Male, age 6 weeks
Conditions: in vivo, po, route gavage; for Bas / Eos / Fbg / Ht / Lym / MCHC / MCV / Mono / PT / Plat / RBC / Ret / WBC / Neu: tissue Blood; for KIDNEY_L / KIDNEY_R / KIDNEY_TOTAL: tissue Kidney; for ALT / AST / CRE / Ca / DBIL / GLC / IP / K / LDH / Na / PL / RALB / TBIL / TC / TG / TP / gamma-GTP / BUN / Cl: tissue Plasma
[1] = 240 mg/kg, 72 h, dose level Middle, time 3 day
[2] = 240 mg/kg, […], dose level Middle, time 7 day
[3] = 240 mg/kg, […], dose level Middle, time 14 day
[4] = 240 mg/kg, […], dose level Middle, time 28 day
[5] = 800 mg/kg, 72 h, dose level High, time 3 day
[6] = 800 mg/kg, […], dose level High, time 7 day
[7] = 800 mg/kg, […], dose level High, time 14 day
[8] = 800 mg/kg, […], dose level High, time 28 day

COc1ccc([C@@H]2Sc3ccccc3N(CCN(C)C)C(=O)[C@@H]2OC(C)=O)cc1 [DILTIAZEM]
Bas [1]: 0.2% | Eos [1]: 1% | Fbg [1]: 294.4 mg/dL | Ht [1]: 40.4% | Lym [1]: 71.6% | MCHC [1]: 32.8% | MCV [1]: 65.7 fL | Mono [1]: 3.4% | PT [1]: 13.8 s | Plat [1]: 118.5 x10_4/uL | RBC [1]: 614.8 x10_4/ul | Ret [1]: 8.8% | WBC [1]: 106.5 x10_2/uL | KIDNEY_L [1]: 1 g | KIDNEY_R [1]: 1 g | KIDNEY_TOTAL [1]: 2 g | ALT [1]: 50 IU/L | AST [1]: 67.4 IU/L | CRE [1]: 0.2 mg/dL | Ca [1]: 11.3 mg/dL | DBIL [1]: 0.02 mg/dL | GLC [1]: 183 mg/dL | IP [1]: 8.1 mg/dL | K [1]: 3.9 meq/L | LDH [1]: 81.8 IU/L | Na [1]: 144 meq/L | PL [1]: 153.8 mg/dL | RALB [1]: 2.7 g/dL | TBIL [1]: 0.024 mg/dL | TC [1]: 87.6 mg/dL | TG [1]: 99.4 mg/dL | TP [1]: 5.6 g/dL | gamma-GTP [1]: 1.2 IU/L | TERMINAL_BW [2]: 251.4 g | TERMINAL_BW [3]: 321.6 g | TERMINAL_BW [4]: 419 g | Bas [2]: 0% | Eos [2]: 0.8% | Fbg [2]: 301.4 mg/dL | Ht [2]: 41% | Lym [2]: 75.2% | MCHC [2]: 32.9% | MCV [2]: 63.6 fL | Mono [2]: 2.6% | Neu [2]: 20.6% | PT [2]: 13.9 s | Plat [2]: 129.2 x10_4/uL | RBC [2]: 644.6 x10_4/ul | Ret [2]: 7% | WBC [2]: 72.6 x10_2/uL | Bas [3]: 0.6% | Eos [3]: 0.8% | Fbg [3]: 336.4 mg/dL | Ht [3]: 42.8% | Lym [3]: 73% | MCHC [3]: 33.1% | MCV [3]: 61.7 fL | Mono [3]: 2.6% | Neu [3]: 22.2% | PT [3]: 14.1 s | Plat [3]: 131.9 x10_4/uL | RBC [3]: 693.6 x10_4/ul | Ret [3]: 5.6% | WBC [3]: 112.7 x10_2/uL | Bas [4]: 0.2% | Eos [4]: 1.4% | Fbg [4]: 305.4 mg/dL | Ht [4]: 45.7% | Lym [4]: 69% | MCHC [4]: 34.4% | MCV [4]: 58.1 fL | Mono [4]: 2.4% | Neu [4]: 26.6% | PT [4]: 13.9 s | Plat [4]: 109.1 x10_4/uL | RBC [4]: 786.8 x10_4/ul | Ret [4]: 2.5% | WBC [4]: 119 x10_2/uL | KIDNEY_L [2]: 1.1 g | KIDNEY_R [2]: 1 g | KIDNEY_TOTAL [2]: 2.1 g | KIDNEY_L [3]: 1.3 g | KIDNEY_R [3]: 1.4 g | KIDNEY_TOTAL [3]: 2.7 g | KIDNEY_L [4]: 1.5 g | KIDNEY_R [4]: 1.5 g | KIDNEY_TOTAL [4]: 3 g | ALT [2]: 38.6 IU/L | AST [2]: 61.6 IU/L | BUN [2]: 15 mg/dL | CRE [2]: 0.2 mg/dL | Ca [2]: 11.4 mg/dL | Cl [2]: 105.8 meq/L | DBIL [2]: 0.01 mg/dL | GLC [2]: 190.6 mg/dL | IP [2]: 8.2 mg/dL | K [2]: 3.9 meq/L | LDH [2]: 97.2 IU/L | Na [2]: 144.2 meq/L | PL [2]: 155 mg/dL | RALB [2]: 2.8 g/dL | TBIL [2]: 0.016 mg/dL | TC [2]: 81.2 mg/dL | TG [2]: 117 mg/dL | TP [2]: 5.9 g/dL | gamma-GTP [2]: 1.2 IU/L | ALT [3]: 44.4 IU/L | AST [3]: 67.8 IU/L | BUN [3]: 14.8 mg/dL | CRE [3]: 0.2 mg/dL | Ca [3]: 11 mg/dL | DBIL [3]: 0.012 mg/dL | GLC [3]: 194.4 mg/dL | IP [3]: 7.6 mg/dL | K [3]: 4 meq/L | LDH [3]: 80 IU/L | Na [3]: 144.4 meq/L | PL [3]: 165.4 mg/dL | RALB [3]: 2.8 g/dL | TBIL [3]: 0.014 mg/dL | TC [3]: 84.2 mg/dL | TG [3]: 125.4 mg/dL | TP [3]: 6.1 g/dL | gamma-GTP [3]: 1.4 IU/L | ALT [4]: 43.8 IU/L | AST [4]: 64.2 IU/L | BUN [4]: 17.2 mg/dL | CRE [4]: 0.2 mg/dL | Ca [4]: 11.3 mg/dL | Cl [4]: 108.6 meq/L | DBIL [4]: 0.012 mg/dL | GLC [4]: 188.6 mg/dL | IP [4]: 7 mg/dL | K [4]: 4 meq/L | LDH [4]: 82.6 IU/L | Na [4]: 146.6 meq/L | PL [4]: 168.8 mg/dL | RALB [4]: 3 g/dL | TBIL [4]: 0.014 mg/dL | TC [4]: 85.2 mg/dL | TG [4]: 163.4 mg/dL | TP [4]: 6.6 g/dL | gamma-GTP [4]: 1 IU/L | TERMINAL_BW [5]: 201.2 g | Bas [5]: 0% | Eos [5]: 1% | Fbg [5]: 277 mg/dL | Ht [5]: 41.8% | Lym [5]: 71.4% | MCHC [5]: 33.3% | MCV [5]: 64.5 fL | Mono [5]: 2.6% | Neu [5]: 24.2% | PT [5]: 14 s | Plat [5]: 141.9 x10_4/uL | RBC [5]: 651.2 x10_4/ul | Ret [5]: 7.5% | WBC [5]: 87.5 x10_2/uL | KIDNEY_L [5]: 0.9 g | KIDNEY_R [5]: 0.9 g | KIDNEY_TOTAL [5]: 1.8 g | ALT [5]: 36.4 IU/L | AST [5]: 61.8 IU/L | CRE [5]: 0.2 mg/dL | Ca [5]: 11 mg/dL | Cl [5]: 106.6 meq/L | DBIL [5]: 0.014 mg/dL | GLC [5]: 161.8 mg/dL | IP [5]: 8 mg/dL | K [5]: 4 meq/L | LDH [5]: 76.6 IU/L | Na [5]: 143.6 meq/L | PL [5]: 151.4 mg/dL | RALB [5]: 2.6 g/dL | TBIL [5]: 0.012 mg/dL | TC [5]: 92.2 mg/dL | TG [5]: 96.6 mg/dL | TP [5]: 5.4 g/dL | gamma-GTP [5]: 1 IU/L | TERMINAL_BW [6]: 242.9 g | TERMINAL_BW [7]: 272.9 g | TERMINAL_BW [8]: 390.8 g | Bas [6]: 0% | Eos [6]: 0.6% | Fbg [6]: 312.6 mg/dL | Ht [6]: 40.7% | Lym [6]: 70.6% | MCHC [6]: 33.3% | MCV [6]: 63.4 fL | Mono [6]: 2.8% | Neu [6]: 25.4% | PT [6]: 14.6 s | Plat [6]: 130.6 x10_4/uL | RBC [6]: 641.4 x10_4/ul | Ret [6]: 6.3% | WBC [6]: 99.7 x10_2/uL | Bas [7]: 0% | Eos [7]: 0.6% | Fbg [7]: 373.6 mg/dL | Ht [7]: 45.5% | Lym [7]: 73.2% | MCHC [7]: 33.4% | MCV [7]: 59.8 fL | Mono [7]: 3.4% | Neu [7]: 21.4% | PT [7]: 14.1 s | Plat [7]: 133.1 x10_4/uL | RBC [7]: 760 x10_4/ul | Ret [7]: 4% | WBC [7]: 108.8 x10_2/uL | Bas [8]: 0.2% | Eos [8]: 1% | Fbg [8]: 281.5 mg/dL | Ht [8]: 45.1% | Lym [8]: 64.8% | MCHC [8]: 34.1% | MCV [8]: 58.1 fL | Mono [8]: 3.2% | Neu [8]: 30.2% | PT [8]: 14.5 s | Plat [8]: 116.2 x10_4/uL | RBC [8]: 777.2 x10_4/ul | Ret [8]: 3.3% | WBC [8]: 123.1 x10_2/uL | KIDNEY_L [6]: 1 g | KIDNEY_R [6]: 1 g | KIDNEY_TOTAL [6]: 2 g | KIDNEY_L [7]: 1.2 g | KIDNEY_R [7]: 1.2 g | KIDNEY_TOTAL [7]: 2.4 g | KIDNEY_L [8]: 1.5 g | KIDNEY_R [8]: 1.5 g | KIDNEY_TOTAL [8]: 2.9 g | ALT [6]: 50 IU/L | AST [6]: 70.6 IU/L | CRE [6]: 0.2 mg/dL | Ca [6]: 11.3 mg/dL | Cl [6]: 105.6 meq/L | DBIL [6]: 0.006 mg/dL | GLC [6]: 187 mg/dL | IP [6]: 8.3 mg/dL | K [6]: 4 meq/L | LDH [6]: 101.6 IU/L | Na [6]: 144.8 meq/L | PL [6]: 145 mg/dL | RALB [6]: 2.7 g/dL | TBIL [6]: 0.004 mg/dL | TC [6]: 87.2 mg/dL | TG [6]: 59.6 mg/dL | TP [6]: 5.7 g/dL | gamma-GTP [6]: 1.2 IU/L | ALT [7]: 61.6 IU/L | AST [7]: 115.4 IU/L | BUN [7]: 16 mg/dL | CRE [7]: 0.2 mg/dL | Ca [7]: 10.7 mg/dL | DBIL [7]: 0.008 mg/dL | GLC [7]: 166.2 mg/dL | IP [7]: 7.2 mg/dL | K [7]: 4 meq/L | LDH [7]: 96.2 IU/L | Na [7]: 146.4 meq/L | PL [7]: 152.8 mg/dL | RALB [7]: 2.8 g/dL | TBIL [7]: 0.004 mg/dL | TC [7]: 99.2 mg/dL | TG [7]: 66.4 mg/dL | TP [7]: 6.1 g/dL | gamma-GTP [7]: 1 IU/L | ALT [8]: 52.5 IU/L | AST [8]: 64 IU/L | BUN [8]: 17.2 mg/dL | CRE [8]: 0.2 mg/dL | Ca [8]: 11.4 mg/dL | Cl [8]: 105.8 meq/L | DBIL [8]: 0.01 mg/dL | GLC [8]: 174.8 mg/dL | IP [8]: 7.2 mg/dL | K [8]: 3.9 meq/L | LDH [8]: 74.8 IU/L | Na [8]: 145.8 meq/L | PL [8]: 154 mg/dL | RALB [8]: 3 g/dL | TBIL [8]: 0.0025 mg/dL | TC [8]: 85.8 mg/dL | TG [8]: 72.2 mg/dL | TP [8]: 6.4 g/dL | gamma-GTP [8]: 2.2 IU/L
